Results taken from patent publication EP1808181A1, “Polysaccharide-cyclodextrin conjugates” (B. BRAUN MELSUNGEN AG, priority 2006, dated 2007).
≈ marks a conversion by molar mass, not a printed value.

Columns and labels:
Humane Erythrozyten = assay: Haemolysis of washed human erythrocytes by cyclodextrin derivatives; format: cell-based, menschlicher; settings: washed human erythrocytes (0,25%), 10 mM isotonic phosphate buffer pH 7,4, 37°C/30 min; read graphically against complete lysis in water; read-out: Cyclodextrin-Konzentration (frei bzw.gebunden) zur halb-maximalen Hämolyse
Description: (§1) Die Hämolyserate der in Tabelle III aufgeführten Cyclodextrin-Derivate wurde wie folgt bestimmt. Humane Erythrozyten wurden aus Citratblut durch Zentrifugation gewonnen (1000 x g / 10 Minuten), in 10 mM isotonem Phosphatpuffer (pH 7,4) aufgenommen und dreimal gewaschen und in diesem Puffer auf einen Hämatokrit von 5% eingestellt. Aliquote der gewaschenen Erythrozyten (0,1 ml) wurden zu 4 ml der in der Tabelle 3 aufgelisteten Cyclodextrin-Derivate (jeweils 5 unterschiedliche Konzentrationen) zugegeben, gemischt und 30 Minuten bei 37°C und gelegentlichem leichten Schütteln inkubiert. Nach abermaliger Zentrifugation (1000 x g / 10 Minuten) wurde das freigesetzten Hämoglobin im Überstand spektralphotometrisch bei 543 nm bestimmt. Die Hämolyseraten wurde aus den erhaltenen Absoptionswerten im Vergleich mit einer kompletter […] in Wasser ermittelt und die Cyclodextrin- Konzentrationen mit halbmaximaler Hämolyse graphisch ermittelt.
(§2) Tabelle III : Hämolyse gewaschener menschlicher Erythrozyten (0,25%) in 10 mM isotonem Phosphatpuffer (pH 7,4) bei 37°C/30 Minuten durch Cyclodextrin-Derivate

physchem = settings: water
[1] = Haemolysis of washed human erythrocytes by cyclodextrin derivatives; format: cell-based, menschlicher; settings: washed human erythrocytes (0,25%), 10 mM isotonic phosphate buffer pH 7,4, 37°C/30 min; read graphically against complete lysis in water; read-out: Cyclodextrin-Konzentration (frei bzw.gebunden) zur halb-maximalen Hämolyse
Description: as §1, §2

Molecule | HC50 (Humane Erythrozyten) [mM] | further results
α-Cyclodextrin | 11 | 
CC(=O)[C@H]1CC[C@H]2[C@@H]3CCC4=CC(=O)CC[C@]4(C)[C@H]3CC[C@]12C [Progesteron] |  | solubility thermodynamic at 72 h (physchem): 0.015 mg/mL (≈ 47.7 µM)
γ--Cyclodextrin | 30 | 
2-HP-β-Cyclodextrin | 10 | 
OC[C@H]1O[C@@H]2O[C@H]3[C@H](O)[C@@H](O)[C@@H](O[C@H]4[C@H](O)[C@@H](O)[C@@H](O[C@H]5[C@H](O)[C@@H](O)[C@@H](O[C@H]6[C@H](O)[C@@H](O)[C@@H](O[C@H]7[C@H](O)[C@@H](O)[C@@H](O[C@H]8[C@H](O)[C@@H](O)[C@@H](O[C@H]1[C@H](O)[C@H]2O)O[C@@H]8CO)O[C@@H]7CO)O[C@@H]6CO)O[C@@H]5CO)O[C@@H]4CO)O[C@@H]3CO [β-Cyclodextrin] |  | HC50 at 0.5 h [1]: 5 mM
